Source: patent publication US11478467B2 (priority 2017, dated 2022)
Like-named read-outs stand apart in the source and are kept apart here.

How the values were obtained:
[1] = format: in vivo, rat; details: 10 mg/kg intraperitoneally, male SD rats
Description: Adult male SD rats were pretreated with the compound 146 or M1 (10 mg/kg intraperitoneally) and the brain and blood plasma were collected 30, 60, 120 and 240 min after M1 administration. The amount of compound in brain tissue extracts was measured using the UPLC/MS analysis.

CYP2D6 = CYP2D6 (Homo sapiens (Human), UniProt P10635); details: dextromethorphan as substrate; cited from earlier work
CYP2D6, sequence (P10635 whole entry): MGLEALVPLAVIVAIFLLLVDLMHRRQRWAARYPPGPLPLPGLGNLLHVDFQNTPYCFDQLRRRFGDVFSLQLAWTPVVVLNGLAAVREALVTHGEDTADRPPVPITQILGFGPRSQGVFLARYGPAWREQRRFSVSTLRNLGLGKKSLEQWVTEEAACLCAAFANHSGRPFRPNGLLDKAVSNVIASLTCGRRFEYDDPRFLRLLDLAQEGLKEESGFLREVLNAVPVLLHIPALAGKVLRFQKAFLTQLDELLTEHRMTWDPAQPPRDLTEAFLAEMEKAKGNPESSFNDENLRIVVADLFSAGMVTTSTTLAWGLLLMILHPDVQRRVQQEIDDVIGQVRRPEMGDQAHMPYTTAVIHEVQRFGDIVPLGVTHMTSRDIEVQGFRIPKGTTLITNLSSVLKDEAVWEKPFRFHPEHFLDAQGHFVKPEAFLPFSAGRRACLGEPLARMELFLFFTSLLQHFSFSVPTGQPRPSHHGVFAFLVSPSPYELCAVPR

[2] = Pharmacokinetic study of sarpogrelate hydrochloride i.v. in rats; format: in vivo, rat; details: after sarpogrelate hydrochloride 2 mg/kg i.v.
Description: Pharmacokinetic study was performed in male Wistar rats equipped with the jugular vein cannulas. Sarpogrelate hydrochloride was formulated in Pharmasolv: PBS buffer (5:95) mixture and administered at the dose of 2 mg/kg intravenously. Blood samples were collected from the jugular vein using heparin as anticoagulant at the scheduled time-points: 5 min, 15 min, 30 min, 1 h, 1.5 h, 2 h, 4 h, and 6 h. An LC-MS/MS bioanalytical method was used for the simultaneous quantification of sarpogrelate and M1 in plasma samples. […] Formation of M1 metabolite of sarpogrelate was rapid as the highest M1 concentrations were measured at the first sampling time points.

[3] = system: Parkinson's disease psychosis; details: cited from earlier work
[4] = system: MK-801-induced hyperactivity; details: 0.1 and 0.3 mg/kg s.c.; MK-801 0.3 mg/kg i.p.; mice; cited from earlier work
[5] = system: locomotor activity, stereotypy, ataxia; details: rats, cited from earlier work; for PCP-elicited hyperactivity / motor behaviors after pretreatment: 10 mg/kg PCP; for behavioral effects given alone (locomotor hyperactivity, stereotypy, ataxia): DO 15-120 mg/kg, DEX 15-120 mg/kg, PCP 1.25-20 mg/kg
[6] = cited from earlier work; for basal insulin secretion: mouse or human islets or in vivo
NMDA receptors = details: compared to that of DEX; cited from earlier work
[7] = Blood glucose levels and oral glucose tolerance in rats; format: in vivo, rat; details: given alone, intraperitoneal
Description: Test substances were administered to male Wistar (Han) rats (180-280 g at the beginning of the experiments; Janvier Labs) housed in groups under free access to food and water. After overnight food deprivation, the tip of the tail was cut, each rat was weighed, housed individually and left without stress in a quiet room. Approximately 1 hour later, baseline blood glucose was measured from a drop of blood collected from the tail tip, using a commercially available glucose-meter (OneTouch®, Lifescan) and then rats received intraperitoneal injection of sarpogrelate and/or dextromethorphan and 30 min later blood glucose was measured again and rats immediately challenged with glucose at 2 g/kg by oral gavage. Then, blood glucose was measured at 6 time-points until 180 minutes post-glucose challenge.

[8] = system: PCP-induced hyperactivity; test: Phencyclidine-induced hyperactivity in rats (sarpogrelate and dextromethorphan); format: in vivo, rat; details: dextromethorphan by itself
[9] = cited from earlier work
[10] = high doses; cited from earlier work
[11] = system: rat primary mixed mesencephalic neuron-glia cultures; details: 1-10 micro M; cited from earlier work
insomnia = details: human, in vivo; cited from earlier work
[12] = system: treatment-resistant major depressive disorder; details: in vivo; cited from earlier work
[13] = system: generalized anxiety disorder; details: human, in vivo; cited from earlier work
dopamine D2 receptors = dopamine D2 receptors (Homo sapiens (Human), UniProt P14416); details: cited from earlier work
dopamine D2 receptors, sequence (P14416 whole entry): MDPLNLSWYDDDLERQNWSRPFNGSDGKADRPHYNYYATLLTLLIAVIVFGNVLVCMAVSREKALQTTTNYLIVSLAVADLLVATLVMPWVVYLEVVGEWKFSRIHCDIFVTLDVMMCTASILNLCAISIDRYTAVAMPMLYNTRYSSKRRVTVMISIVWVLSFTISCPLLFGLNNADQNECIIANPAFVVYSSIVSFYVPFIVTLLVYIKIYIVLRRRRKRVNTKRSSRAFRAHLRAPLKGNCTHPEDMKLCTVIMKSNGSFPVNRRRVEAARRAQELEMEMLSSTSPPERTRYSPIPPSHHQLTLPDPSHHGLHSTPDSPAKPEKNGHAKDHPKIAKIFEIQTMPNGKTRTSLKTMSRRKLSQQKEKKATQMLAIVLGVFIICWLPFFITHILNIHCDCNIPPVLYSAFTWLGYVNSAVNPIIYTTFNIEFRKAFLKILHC

5-HT2A/5-HT2C receptors = details: in vivo; cited from earlier work
[14] = dose-range that covers therapeutically relevant exposures; cited from earlier work

In the case of COc1cccc(CCc2ccccc2OCC(O)CN(C)C)c1 (racemic) [Compound 146, 1-(dimethylamino)-3-(2-(3-methoxyphenethyl)phenoxy)propan-2-ol], the “total brain concentration vs blood concentration” value ([1]; 30, 60, 120 and 240 min) is listed as “significantly exceeded the blood concentration”, the “penetration into the brain” value [1] is listed as “readily penetrates into the brain” and the “inhibition type (Dixon plots)” value (CYP2D6) is listed as “fit well to all competitive inhibition types”. For the same compound, the “Formation of M1 metabolite of sarpogrelate” value [2] was “rapid” and the M1/sarpogrelate ratio ([2]; plasma) was 2.98±0.597%.

For CC(C)COc1ccc(CNC(=O)N(Cc2ccc(F)cc2)C2CCN(C)CC2)cc1 [ACP-103, N-(4-fluorophenylmethyl)-N-(1-methylpiperidin-4-yl)-N′-(4-(2-methylpropyloxy)phenylmethyl) carbamide (2R,3R)-dihydroxybutanedioate (2:1)], the “night-time sleep and daytime wakefulness” value ([3]; compared with placebo) is given as “improvements on night-time sleep and daytime wakefulness”, the “psychotic symptoms (hallucinations and delusions)” value ([3]; patients with moderate to severe Parkinson's disease) is given as “significantly reduced psychotic symptoms” and the MK-801-induced hyperactivity [4] is given as “significantly attenuated MK-801-induced hyperactivity”.

For CN1CC[C@@]23CCCC[C@@H]2[C@@H]1Cc1ccc(O)cc13 [DO, dextrorphan], the “PCP-elicited hyperactivity / motor behaviors after pretreatment” value [5] is listed as “facilitated”, the “PCP-elicited hyperactivity / motor behaviors after pretreatment” value ([5]; listed as dextrorphan) is listed as “but not its metabolite dextrorphan” and the “behavioral effects given alone (locomotor hyperactivity, stereotypy, ataxia)” value [5] is listed as “dose-dependent locomotor hyperactivity, stereotypy and ataxia”. The basal insulin secretion [6] was “did not significantly alter basal insulin secretion” and the “affinity for NMDA receptors” value (NMDA receptors) was “substantially higher affinity”.

In the case of COc1ccc2c(c1)[C@@]13CCCC[C@H]1[C@@H](C2)N(C)CC3 [dextromethorphan, 3-methoxy-17-methylmorphinan], the “blood glucose level (AUC 30-180 min after oral glucose 2 g/kg)” value [7] is listed as “significantly reduced blood glucose level”, the “PCP-elicited hyperactivity / motor behaviors after pretreatment” value [5] is listed as “attenuate phencyclidine-induced motor behaviors” and the “PCP-elicited hyperactivity / motor behaviors after pretreatment” value ([5]; listed as DEX) is listed as “dose-dependently inhibited”. The “behavioral effects given alone (locomotor hyperactivity, stereotypy, ataxia)” value [5] was “induced moderate hyperactivity only at the higher doses”, the “motor activity in PCP-treated rats” value ([8]; oral administration) was “enhanced” and the “motor activity in PCP-treated rats” value ([8]; subcutaneous administration) was “reduced”. For the same compound, the “area under the curve of blood glucose concentrations within the first 2 h of the OGTT (glucose AUC1-3 h)” value ([9]; 270 mg DEX vs placebo) was “significantly (P<0.05) smaller”, the “maximal serum insulin concentrations following oral glucose intake” value ([9]; 60 and 270 mg DEX vs placebo) was “significantly (P<0.05) higher maximal serum insulin concentrations” and the “fasting serum insulin and fasting blood glucose concentrations” value ([9]; single oral dose 60 or 270 mg, males with T2DM on metformin) was “led to neither higher fasting serum insulin concentrations nor lower fasting blood glucose concentrations”. The severe hypoglycemic events ([9]; up to a dose of 270 mg) was “did not provoke any severe hypoglycemic events”, the “glucose-induced plasma insulin concentrations and glucose tolerance” value ([6]; DEX via drinking water 4 mg/ml overnight, glucose i.p., mice) was “significantly higher glucose-induced plasma insulin concentrations and glucose tolerance” and the “basal plasma insulin and fasting blood glucose concentrations” value ([6]; DEX via drinking water 4 mg/ml overnight, mice) was “changed neither basal plasma insulin nor fasting blood glucose concentrations”. The basal insulin secretion [6] was “did not significantly alter basal insulin secretion”, the “heart rate, blood pressure, temperature, and plasma bromide” value [10] was “mild elevations of heart rate, blood pressure, temperature, and plasma bromide” and the “protection of dopamine neurons” value [11] was “protected dopamine neurons against lipopolysaccharide (LPS)-induced reduction of dopamine uptake”.

For CN(C)CCO/N=C(/C=C/c1ccc(O)cc1)c1ccccc1F [eplivanserin], the “clinical efficacy in insomnia” value (insomnia) is given as “demonstrated clinical efficacy in patients with insomnia”.

In the case of CNC1(c2ccccc2Cl)CCCCC1=O (stereo not shown) [ketamine, 2-(2-chlorophenyl)-2-(methylamino)cyclohexan-1-one], the antidepressant activity [12] is listed as “rapid and robust antidepressant activity”.

In the case of COC(=O)c1c2n(c3ccccc13)Cc1ccccc1N1CCN(C)CC21.Cl (stereo not shown) [serazepine], the “efficacy in generalized anxiety disorder” value [13] is listed as “shown efficacy”.

For “N,N-dimethyl-2-[[(1R,3S,4R)-4,7,7-trimethyl-3-phenyl-3-bicyclo[2.2.1] heptanyl] oxy]ethanamine [Compound 829]”, the “selectivity against dopamine D2 receptors” value (dopamine D2 receptors) is listed as “at least 10 fold”, the “down-regulation of 5-HT2A/5-HT2C receptors” value (5-HT2A/5-HT2C receptors) is listed as “does not induce down-regulation of these receptors” and the prolactin [14] is listed as “not found to elevate prolactin”.
